“And” between values parts separate entries of the source, which are not always exact repeats. Equal values may be shown once.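 These data come from cells grown in 96-well plates and exposed to compound for 48 hours at five concentrations. GI50 is the concentration that inhibits growth by half. TGI: total growth inhibition.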
Assays:
Assay in all cases: DTP human tumour cell line panel, 48 h
CCRF-CEM leukemia = test system: CCRF-CEM leukemia
NCI/ADR-RES ovarian = test system: NCI/ADR-RES ovarian
SK-OV-3 ovarian = test system: SK-OV-3 ovarian
SK-MEL-28 melanoma = test system: SK-MEL-28 melanoma
T-47D breast = test system: T-47D breast
RXF 393 renal = test system: RXF 393 renal
MALME-3M melanoma = test system: MALME-3M melanoma
NCI-H460 lung = test system: NCI-H460 lung
EKVX NSCLC = test system: EKVX NSCLC
UACC-257 melanoma = test system: UACC-257 melanoma

SMILES	GI50 (CCRF-CEM leukemia)	TGI (CCRF-CEM leukemia) [µM]	GI50 (NCI/ADR-RES ovarian)	TGI (NCI/ADR-RES ovarian) [µM]	GI50 (SK-OV-3 ovarian)	TGI (SK-OV-3 ovarian) [µM]	GI50 (SK-MEL-28 melanoma) [µM]	TGI (SK-MEL-28 melanoma) [µM]	GI50 (T-47D breast) [µM]	TGI (T-47D breast) [µM]	GI50 (RXF 393 renal) [µM]	TGI (RXF 393 renal) [µM]	GI50 (MALME-3M melanoma) [µM]	TGI (MALME-3M melanoma) [µM]	GI50 (NCI-H460 lung)	TGI (NCI-H460 lung) [µM]	TGI (EKVX NSCLC) [µM]	TGI (UACC-257 melanoma) [µM]	GI50 (UACC-257 melanoma) [µM]	GI50 (EKVX NSCLC)
O=C(Nc1cc(Cl)cc(Cl)c1)c1cccc(NC2=C(Cl)C(=O)N(Cc3ccccc3)C2=O)c1	4.09 µM	> 100	30.3 µM	> 100	33.6 µM	> 100	54.7	> 100	66.5	> 100	18.9	> 100	30.7	97.4	33.2 µM	> 100	–	–	–	–
COc1cc(/C=C(\NC(=O)c2ccccc2)c2nc3ncncc3[nH]2)cc(OC)c1OC	–	> 100	–	–	–	> 100	–	> 100	–	–	–	> 100	–	> 100	–	–	> 100	–	–	–
NS(=O)(=O)c1ccc(NC(=O)C2C(=O)C(=O)N(c3ccc(S(N)(=O)=O)cc3)C2=O)cc1 (configuration not stated)	–	> 100	–	–	–	> 100	–	> 100	–	–	–	> 100	–	> 100	–	–	> 100	> 100	–	–
CC(C)COC1Sc2ccccc2S1	–	> 100	–	–	–	43.2	–	33.7	–	–	–	34.6	–	57.2	–	24.6	38.1	–	–	–
Cc1nc2sc3c(N)ncnc3c2c(C)c1C	> 25 µM	> 25	> 25 µM	> 25	> 25 µM	> 25	> 25	> 25	> 25	> 25	> 25	> 25	> 25	> 25	> 25 µM	> 25	–	> 25	> 25	–
O=C(Nc1ccc(Cl)cc1C(=O)O)c1ccc([N+](=O)[O-])cc1	–	67.4	–	–	–	56.5	–	97.2	–	–	–	–	–	25.7	–	45.7	82.8	48	–	–
CCCCNC(=S)OCCC(C)CCCC(C)C (configuration not stated)	–	> 100	–	–	–	> 100	–	> 100	–	–	–	> 100	–	> 100	–	> 100	> 100	> 100	–	–
N#CC1(C#N)C=CC(=C2OCC3CCCN23)C=C1 (configuration not stated)	–	> 100	–	–	–	> 100	–	–	–	–	–	> 100	–	> 100	–	> 100	–	> 100	–	–
CCN1C(=O)N(CC)C2C1NN=c1s/c(=C3\C(=O)N(C4CCCC4)c4ccccc43)c(=O)n12 (configuration not stated)	2.02 µM	57.5	–	–	2.45 µM	27.8	1.18	> 100	–	–	0.603	3.2	1.26	8.74	0.906 µM	> 100	> 100	–	–	3.36 µM
NCCCNc1nc2ccccc2c2c(=O)c3cccc(Cl)c3sc12	–	–	1.71 µM	3.25	1.45 µM	2.92	1.81	3.29	–	–	1.47	2.83	1.57	3	–	–	2.8	–	–	1.43 µM
CNC(=O)c1c(F)cccc1Nc1nc(Nc2cc3c(cc2OC)CCN3C(=O)CN(C)C)nc2[nH]ccc12	2.1 µM	5.73	9.69 µM	> 61.5	11.5 µM	27.5	1.57	2.97	8.19	28.4	1.8	3.6	1.5	3.13	6.2 µM	30.1	–	–	–	–
O=C(/C=C/c1ccccn1)c1ccc(OCc2nnc(-c3ccc(Cl)cc3)o2)cc1	1.83 µM	5.88	3.67 µM	41.3	3.82 µM	10.4	1.77	3.36	2.65	8.64	1.7	3.17	2.28	4.46	3.24 µM	11.1	–	4.06	1.98	–
Cn1cc(C2=C(c3cn(CCCN)c4ccccc34)C(=O)NC2=O)c2ccccc21	2.59 µM	12.1	10.8 µM	> 25	5.58 µM	> 25	4.7	9.3	6.4	17.5	3.4	7.42	5.66	10.6	5.25 µM	11.1	–	9.05	4.9	–
O=C1C=C2CCCC2C(C(=O)O)(C(=O)O)C1 (configuration not stated)	–	> 100	–	–	–	> 100	–	> 100	–	–	–	> 100	–	> 100	–	> 100	> 100	> 100	–	–
CC1=CP(=O)(c2ccccc2)C=C(C)C1=C(Cl)Cl (configuration not stated)	–	19.2	–	–	–	72.3	–	23.4	–	–	–	33.5	–	–	–	59.1	–	–	–	–
CCC(=O)N1C/C(=C/c2ccc(Br)cc2)C(=O)/C(=C/c2ccc(Br)cc2)C1	0.88 µM	4.6	1.36 µM	32.8	1.73 µM	5.98	1.53	3.13	0.673	2.54	0.22	0.522	1.69	3.63	0.827 µM	3.07	–	3.47	1.63	–
Cn1c(=O)c(Oc2ccc(F)cc2F)cc2cnc(N[C@@H]3CCOC3)nc21	> 25 µM	> 25	> 25 µM	> 25	> 25 µM	> 25	> 25	> 25	> 25	> 25	> 25	> 25	> 25	> 25	> 25 µM	> 25	–	> 25	> 25	–
O=C(CC1C(=O)Nc2ccccc2S1(=O)=O)Nc1ccc(Cl)cc1 (configuration not stated)	–	77.7	–	–	–	–	–	74.5	–	–	–	38.5	–	86.9	–	> 100	–	91.6	–	–
COc1cc2ncnc(Nc3ccc(Oc4ccnc(C)c4)c(C)c3)c2cc1NC(=O)CC1CCSS1 (configuration not stated)	0.253 µM	1.69	2.14 µM	> 50	0.854 µM	1.63	–	–	–	–	1.5	> 50	–	–	–	–	> 50	2.35	1.02	1.36 µM

SMILES	GI50 (CCRF-CEM leukemia)	TGI (CCRF-CEM leukemia) [µM]	GI50 (NCI/ADR-RES ovarian)	TGI (NCI/ADR-RES ovarian) [µM]	GI50 (SK-OV-3 ovarian)	TGI (SK-OV-3 ovarian) [µM]	GI50 (SK-MEL-28 melanoma) [µM]	TGI (SK-MEL-28 melanoma) [µM]	GI50 (T-47D breast) [µM]	TGI (T-47D breast) [µM]	GI50 (RXF 393 renal) [µM]	TGI (RXF 393 renal) [µM]	GI50 (MALME-3M melanoma) [µM]	TGI (MALME-3M melanoma) [µM]	GI50 (NCI-H460 lung)	TGI (NCI-H460 lung) [µM]	TGI (EKVX NSCLC) [µM]	TGI (UACC-257 melanoma) [µM]	GI50 (UACC-257 melanoma) [µM]	GI50 (EKVX NSCLC)
COc1ccc(O)cc1C(O)c1ccccc1 (configuration not stated)	–	> 100	–	–	–	> 100	–	> 100	–	–	–	> 100	–	> 100	–	> 100	> 100	> 100	–	–
CCCCCCCCCCCCCCCC(=O)OCCOCCOCCOCCOCCOC(=O)CCCCCCCCCCCCCCC	–	> 100	–	–	–	> 100	–	> 100	–	–	–	> 100	–	> 100	–	> 100	> 100	> 100	–	–
Nc1nc2c(-c3ccc([N+](=O)[O-])cc3)nnn2c2ccccc12	–	–	–	–	–	> 100	–	> 100	–	–	–	–	–	> 100	–	> 100	> 100	–	–	–
COc1ccc(-c2cn(-c3ccc(OC)c(OC)c3)c(=O)[nH]2)cc1	> 100 µM	> 100	85.8 µM	> 100	> 100 µM	> 100	> 100	> 100	51.5	> 100	–	–	> 100	> 100	> 100 µM	> 100	> 100	–	–	> 100 µM
C[N+](C)(C)c1cc[c]([Sn]([c]2ccc([N+](C)(C)C)cc2)([c]2ccc([N+](C)(C)C)cc2)[c]2ccc([N+](C)(C)C)cc2)cc1	–	–	–	–	> 100 µM	> 100	> 100	> 100	–	–	> 100	> 100	> 100	> 100	> 100 µM	> 100	> 100	> 100	> 100	> 100 µM
CCc1cc2c(O)c(c1)Cc1cc(CC)cc(c1O)Cc1cc(CC)cc(c1O)Cc1cc(CC)cc(c1O)Cc1cc(CC)cc(c1O)Cc1cc(CC)cc(c1O)Cc1cc(CC)cc(c1O)C2	–	> 100	–	–	–	–	–	> 100	–	–	–	43.3	–	> 100	–	> 100	> 100	> 100	–	–
CC1C=CC(C(N)C(=O)O)O1 (configuration not stated)	–	> 100	–	–	–	> 100	–	> 100	–	–	–	> 100	–	> 100	–	> 100	> 100	–	–	–
O=C1C=C(OCC=C(C(F)(F)F)C(F)(F)F)c2ccccc2C1=O	1.17 µM	5.22	3.21 µM	14.7	3.45 µM	12	1.87	3.61	0.777	3.7	1.69	3.18	1.56	3.11	–	–	–	2.77	1.42	–
c1ccc2c(c1)Cc1c(Cc3csc4ccccc34)ccc3cccc-2c13	–	> 100	–	–	–	–	–	> 100	–	–	–	> 100	–	> 100	–	> 100	> 100	> 100	–	–
COc1ccc(/C=C/C(=O)c2c(-c3ccccc3)nn(C)c(=O)c2N2CCOCC2)cc1	–	> 100	–	–	–	> 100	–	> 100	–	–	–	> 100	–	–	–	> 100	> 100	–	–	–
CCOC(=N)CC(=O)Nc1ccccc1	–	> 31.6	–	–	–	> 100	–	> 46.4	–	–	–	> 46.4	–	> 46.4	–	> 46.4	> 100	> 46.4	–	–
CCC(C)C1=C(O)[N+]2([O-])Oc3ccc(C4=C(O)C(=O)C(c5ccc(O)cc5)=C(O)C4=O)cc3OC2(C(C)CC)C(=O)N1O (configuration not stated)	13.1 µM	76.7	7.86 µM	> 100	–	–	85.7	> 100	–	–	8.49	> 100	14.7	48.2	4.26 µM	> 100	> 100	> 100	11.5	23.7 µM
N#C/C(=C1\OC(=N)C(c2ccccc2)C1=O)c1ccccc1 (configuration not stated)	–	48.6	–	–	–	> 100	–	20.2	–	–	–	31.8	–	36.8	–	> 100	> 73.2	59.3	–	–
C/C=C/C(=O)[O-].C/C=C/C(=O)[O-].N.N.N.N.[Co+3].[O-][Cl+3]([O-])([O-])[O-]	> 100 µM	> 100	–	–	> 100 µM	> 100	> 100	> 100	–	–	–	–	> 100	> 100	> 100 µM	> 100	> 100	> 100	> 100	> 100 µM
Cc1ccc(N=C2N=C(N3CC(C)OC(C)C3)c3ccccc32)cc1 (configuration not stated)	–	66.8	–	–	–	–	–	87.2	–	–	–	34.4	–	99.4	–	> 100	> 100	74.6	–	–
CC[C@H](C)[C@H](NC(=O)[C@H]1CCCCN1C)C(=O)N(C)[C@H](C[C@@H](OC(C)=O)c1cccc(C(=O)N[C@@H](Cc2ccccc2)C[C@H](C)C(=O)O)n1)C(C)C	0.000818 µM and 0.0025 µM	> 25	0.0584 µM and 0.00946 µM	> 25	0.00348 µM and 0.0025 µM	> 25	–	> 25	0.00136	–	–	–	1.95	> 25	0.00278 µM and 0.0025 µM	> 25	> 25	–	–	0.00493 µM and 0.0025 µM
COc1ccc(S(=O)(=O)Nc2c(/C=C\c3cc(OC)c(OC)c(OC)c3)ccc(OC)c2O)cc1	0.0301 µM	> 100	0.155 µM	0.598	–	–	–	–	–	–	0.0318	21.7	15.1	> 100	0.0368 µM	13.7	–	–	–	–
O=C(N=c1nc(NC(=O)c2ccccc2)ss1)c1ccccc1	–	> 100	–	–	–	68.9	–	> 100	–	–	–	> 100	–	> 100	–	39.7	> 100	48.1	–	–
COc1cc([N+](=O)[O-])c(S(=O)(=O)O)cc1-n1nc(C(=O)Nc2ccccc2)n[n+]1-c1cc(S(=O)(=O)[O-])c([N+](=O)[O-])cc1OC	–	> 100	–	> 100	–	> 100	–	> 100	–	–	–	–	–	> 100	–	> 100	> 100	> 100	–	–

Source: PubChem BioAssay (NCI)
